The record followed here is ChEMBL document CHEMBL3991601, “The target landscape of clinical kinase drugs” (Science, 2017).

Structures are written as SMILES. The source made the active and inactive calls.

The target in experiment [1] is Eukaryotic peptide chain release factor GTP-binding subunit ERF3B (Homo sapiens, UniProt Q8IYD1).
Experiment [2] concerns the target Serine/threonine-protein kinase ATR (Homo sapiens, UniProt Q13535).
The target of experiment [3] is Cyclin-dependent kinase 2 (Homo sapiens, UniProt P24941).
Experiment [4] concerns the target T1, Cyclin-dependent kinase-like 5 (Homo sapiens, UniProt O76039).
T1 sequence (O76039 whole entry): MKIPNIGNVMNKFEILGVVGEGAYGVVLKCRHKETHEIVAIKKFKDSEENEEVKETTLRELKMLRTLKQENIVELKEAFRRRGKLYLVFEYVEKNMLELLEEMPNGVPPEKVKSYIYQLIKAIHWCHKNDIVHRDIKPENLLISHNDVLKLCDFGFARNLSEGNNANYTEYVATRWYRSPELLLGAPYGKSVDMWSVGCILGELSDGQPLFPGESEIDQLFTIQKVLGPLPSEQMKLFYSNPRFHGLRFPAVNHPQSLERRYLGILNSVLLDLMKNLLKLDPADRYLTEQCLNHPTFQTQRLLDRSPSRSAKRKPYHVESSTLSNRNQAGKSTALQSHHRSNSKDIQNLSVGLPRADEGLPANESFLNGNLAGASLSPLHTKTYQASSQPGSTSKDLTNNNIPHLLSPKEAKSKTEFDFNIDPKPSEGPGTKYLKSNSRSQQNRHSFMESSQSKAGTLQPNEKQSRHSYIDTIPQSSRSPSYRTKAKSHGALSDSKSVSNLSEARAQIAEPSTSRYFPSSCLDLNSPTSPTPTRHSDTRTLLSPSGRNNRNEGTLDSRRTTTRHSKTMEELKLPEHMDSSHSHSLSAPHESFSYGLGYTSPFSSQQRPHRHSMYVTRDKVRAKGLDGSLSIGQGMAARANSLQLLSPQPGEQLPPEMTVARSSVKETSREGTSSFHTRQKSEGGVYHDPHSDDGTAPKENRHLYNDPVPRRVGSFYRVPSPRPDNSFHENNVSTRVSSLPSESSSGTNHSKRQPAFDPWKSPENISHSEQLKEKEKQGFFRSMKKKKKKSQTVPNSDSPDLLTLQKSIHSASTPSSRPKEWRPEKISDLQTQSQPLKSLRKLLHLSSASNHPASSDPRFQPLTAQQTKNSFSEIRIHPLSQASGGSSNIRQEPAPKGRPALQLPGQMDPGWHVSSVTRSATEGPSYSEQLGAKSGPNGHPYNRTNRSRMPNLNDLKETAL

Experiment [5] concerns the target MAP kinase-activated protein kinase 3 (Homo sapiens, UniProt Q16644).
For experiment [6], the target named is T2, Phosphatidylinositol 5-phosphate 4-kinase type-2 alpha (Homo sapiens, UniProt P48426).
T2 sequence (P48426 whole entry): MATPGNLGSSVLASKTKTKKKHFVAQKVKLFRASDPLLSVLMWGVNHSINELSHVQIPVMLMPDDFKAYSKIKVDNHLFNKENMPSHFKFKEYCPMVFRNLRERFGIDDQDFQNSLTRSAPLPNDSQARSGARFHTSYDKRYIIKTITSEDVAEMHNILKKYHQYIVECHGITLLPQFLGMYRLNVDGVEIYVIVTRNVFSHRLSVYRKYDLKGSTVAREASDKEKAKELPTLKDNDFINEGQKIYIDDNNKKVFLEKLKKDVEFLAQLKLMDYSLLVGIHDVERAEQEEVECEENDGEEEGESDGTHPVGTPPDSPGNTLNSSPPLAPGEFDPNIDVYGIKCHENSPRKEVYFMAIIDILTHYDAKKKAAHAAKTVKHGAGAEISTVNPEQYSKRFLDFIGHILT

The target of experiment [7] is Dual specificity protein kinase CLK2 (Homo sapiens, UniProt P49760).
Experiment [8] has as its target Guanine nucleotide-binding protein G(i) subunit alpha-2 (Homo sapiens, UniProt P04899).
The target in experiment [9] is T3, Adenine phosphoribosyltransferase (Homo sapiens, UniProt P07741).
T3 sequence (P07741 whole entry): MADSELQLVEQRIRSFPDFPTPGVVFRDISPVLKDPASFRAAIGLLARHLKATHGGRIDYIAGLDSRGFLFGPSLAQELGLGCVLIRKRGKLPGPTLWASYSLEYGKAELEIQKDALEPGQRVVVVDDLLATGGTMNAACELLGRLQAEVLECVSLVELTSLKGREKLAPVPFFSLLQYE

Experiment [10] addresses T4, Inhibitor of nuclear factor kappa-B kinase subunit epsilon (Homo sapiens, UniProt Q14164).
T4 sequence (Q14164 whole entry): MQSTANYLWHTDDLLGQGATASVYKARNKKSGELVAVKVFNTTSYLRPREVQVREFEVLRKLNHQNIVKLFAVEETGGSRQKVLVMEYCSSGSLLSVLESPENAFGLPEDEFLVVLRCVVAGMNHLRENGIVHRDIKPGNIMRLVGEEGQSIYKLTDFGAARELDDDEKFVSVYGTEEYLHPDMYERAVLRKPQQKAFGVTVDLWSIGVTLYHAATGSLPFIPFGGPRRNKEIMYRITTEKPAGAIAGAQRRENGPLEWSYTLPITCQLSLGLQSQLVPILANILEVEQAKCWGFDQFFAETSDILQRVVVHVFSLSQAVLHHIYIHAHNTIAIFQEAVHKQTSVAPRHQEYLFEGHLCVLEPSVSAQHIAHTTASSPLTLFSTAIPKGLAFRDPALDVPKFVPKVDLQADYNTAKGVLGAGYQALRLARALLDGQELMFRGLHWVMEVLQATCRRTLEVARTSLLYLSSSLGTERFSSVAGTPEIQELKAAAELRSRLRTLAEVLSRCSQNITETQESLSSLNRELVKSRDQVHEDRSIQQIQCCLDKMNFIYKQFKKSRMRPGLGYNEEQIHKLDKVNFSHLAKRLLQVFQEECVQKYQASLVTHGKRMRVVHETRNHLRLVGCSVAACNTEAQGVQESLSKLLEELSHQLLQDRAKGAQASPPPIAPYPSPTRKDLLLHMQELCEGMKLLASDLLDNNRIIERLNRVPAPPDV

The target of experiment [11] is Cyclin-dependent kinase 10 (Homo sapiens, UniProt Q15131).
Chain of Cyclin-dependent kinase 10 (Q15131 whole entry): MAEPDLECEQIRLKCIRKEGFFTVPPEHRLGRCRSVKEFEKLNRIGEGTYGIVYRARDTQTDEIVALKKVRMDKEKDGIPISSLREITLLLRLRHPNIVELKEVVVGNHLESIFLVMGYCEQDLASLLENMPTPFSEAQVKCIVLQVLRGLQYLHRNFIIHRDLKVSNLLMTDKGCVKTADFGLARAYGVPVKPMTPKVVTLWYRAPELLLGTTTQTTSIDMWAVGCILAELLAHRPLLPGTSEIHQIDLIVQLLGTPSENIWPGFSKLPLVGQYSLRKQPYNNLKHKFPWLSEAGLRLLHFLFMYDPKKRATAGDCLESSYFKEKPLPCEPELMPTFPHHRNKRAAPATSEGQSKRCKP
The target in experiment [12] is Phosphatidylethanolamine-binding protein 1 (Homo sapiens, UniProt P30086).
Chain of Phosphatidylethanolamine-binding protein 1 (P30086 whole entry): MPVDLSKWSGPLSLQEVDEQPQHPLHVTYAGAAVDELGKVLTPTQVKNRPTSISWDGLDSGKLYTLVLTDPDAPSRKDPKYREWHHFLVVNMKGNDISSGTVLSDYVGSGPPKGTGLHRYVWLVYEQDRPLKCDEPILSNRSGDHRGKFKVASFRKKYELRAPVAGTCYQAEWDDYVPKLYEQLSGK
Experiment [13] deals with Serine/threonine-protein kinase N3 (Homo sapiens, UniProt Q6P5Z2).
Chain of Serine/threonine-protein kinase N3 (Q6P5Z2 whole entry): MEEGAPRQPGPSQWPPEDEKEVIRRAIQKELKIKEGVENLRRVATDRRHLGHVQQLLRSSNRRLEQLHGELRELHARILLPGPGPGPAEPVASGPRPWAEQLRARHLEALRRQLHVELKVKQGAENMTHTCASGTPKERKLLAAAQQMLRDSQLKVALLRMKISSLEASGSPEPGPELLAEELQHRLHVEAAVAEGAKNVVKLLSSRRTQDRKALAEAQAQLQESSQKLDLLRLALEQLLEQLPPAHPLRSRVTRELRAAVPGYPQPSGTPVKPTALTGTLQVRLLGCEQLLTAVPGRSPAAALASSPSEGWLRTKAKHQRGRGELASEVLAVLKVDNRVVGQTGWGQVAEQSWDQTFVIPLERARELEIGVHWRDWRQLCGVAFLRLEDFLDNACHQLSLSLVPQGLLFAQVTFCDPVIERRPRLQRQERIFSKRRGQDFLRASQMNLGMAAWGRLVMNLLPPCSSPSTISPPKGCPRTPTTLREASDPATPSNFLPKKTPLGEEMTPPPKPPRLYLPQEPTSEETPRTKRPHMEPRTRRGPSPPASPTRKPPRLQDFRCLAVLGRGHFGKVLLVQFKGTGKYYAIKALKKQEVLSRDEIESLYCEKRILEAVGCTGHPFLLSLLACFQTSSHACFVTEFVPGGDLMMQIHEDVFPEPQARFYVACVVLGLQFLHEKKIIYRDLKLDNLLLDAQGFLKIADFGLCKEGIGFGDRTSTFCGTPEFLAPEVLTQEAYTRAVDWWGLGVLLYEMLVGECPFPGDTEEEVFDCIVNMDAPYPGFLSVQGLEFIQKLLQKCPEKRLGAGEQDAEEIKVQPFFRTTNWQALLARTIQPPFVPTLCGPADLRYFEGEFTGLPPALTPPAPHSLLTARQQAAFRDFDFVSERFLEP
Experiment [14] has as its target Tyrosine-protein kinase Fgr (Homo sapiens, UniProt P09769).
Note: in the data inactive means no Kd found up to 30 µM.

Chain of Guanine nucleotide-binding protein G(i) subunit alpha-2 (P04899 whole entry): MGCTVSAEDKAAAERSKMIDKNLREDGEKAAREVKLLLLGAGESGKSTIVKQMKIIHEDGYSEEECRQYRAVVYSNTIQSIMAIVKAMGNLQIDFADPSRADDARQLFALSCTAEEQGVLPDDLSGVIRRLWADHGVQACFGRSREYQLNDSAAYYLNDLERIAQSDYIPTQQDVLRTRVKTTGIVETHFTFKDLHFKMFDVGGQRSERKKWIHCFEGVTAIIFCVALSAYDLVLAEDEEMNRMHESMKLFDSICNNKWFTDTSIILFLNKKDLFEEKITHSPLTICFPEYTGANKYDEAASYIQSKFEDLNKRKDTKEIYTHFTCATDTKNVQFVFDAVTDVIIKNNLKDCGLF
Chain of Serine/threonine-protein kinase ATR (Q13535 whole entry): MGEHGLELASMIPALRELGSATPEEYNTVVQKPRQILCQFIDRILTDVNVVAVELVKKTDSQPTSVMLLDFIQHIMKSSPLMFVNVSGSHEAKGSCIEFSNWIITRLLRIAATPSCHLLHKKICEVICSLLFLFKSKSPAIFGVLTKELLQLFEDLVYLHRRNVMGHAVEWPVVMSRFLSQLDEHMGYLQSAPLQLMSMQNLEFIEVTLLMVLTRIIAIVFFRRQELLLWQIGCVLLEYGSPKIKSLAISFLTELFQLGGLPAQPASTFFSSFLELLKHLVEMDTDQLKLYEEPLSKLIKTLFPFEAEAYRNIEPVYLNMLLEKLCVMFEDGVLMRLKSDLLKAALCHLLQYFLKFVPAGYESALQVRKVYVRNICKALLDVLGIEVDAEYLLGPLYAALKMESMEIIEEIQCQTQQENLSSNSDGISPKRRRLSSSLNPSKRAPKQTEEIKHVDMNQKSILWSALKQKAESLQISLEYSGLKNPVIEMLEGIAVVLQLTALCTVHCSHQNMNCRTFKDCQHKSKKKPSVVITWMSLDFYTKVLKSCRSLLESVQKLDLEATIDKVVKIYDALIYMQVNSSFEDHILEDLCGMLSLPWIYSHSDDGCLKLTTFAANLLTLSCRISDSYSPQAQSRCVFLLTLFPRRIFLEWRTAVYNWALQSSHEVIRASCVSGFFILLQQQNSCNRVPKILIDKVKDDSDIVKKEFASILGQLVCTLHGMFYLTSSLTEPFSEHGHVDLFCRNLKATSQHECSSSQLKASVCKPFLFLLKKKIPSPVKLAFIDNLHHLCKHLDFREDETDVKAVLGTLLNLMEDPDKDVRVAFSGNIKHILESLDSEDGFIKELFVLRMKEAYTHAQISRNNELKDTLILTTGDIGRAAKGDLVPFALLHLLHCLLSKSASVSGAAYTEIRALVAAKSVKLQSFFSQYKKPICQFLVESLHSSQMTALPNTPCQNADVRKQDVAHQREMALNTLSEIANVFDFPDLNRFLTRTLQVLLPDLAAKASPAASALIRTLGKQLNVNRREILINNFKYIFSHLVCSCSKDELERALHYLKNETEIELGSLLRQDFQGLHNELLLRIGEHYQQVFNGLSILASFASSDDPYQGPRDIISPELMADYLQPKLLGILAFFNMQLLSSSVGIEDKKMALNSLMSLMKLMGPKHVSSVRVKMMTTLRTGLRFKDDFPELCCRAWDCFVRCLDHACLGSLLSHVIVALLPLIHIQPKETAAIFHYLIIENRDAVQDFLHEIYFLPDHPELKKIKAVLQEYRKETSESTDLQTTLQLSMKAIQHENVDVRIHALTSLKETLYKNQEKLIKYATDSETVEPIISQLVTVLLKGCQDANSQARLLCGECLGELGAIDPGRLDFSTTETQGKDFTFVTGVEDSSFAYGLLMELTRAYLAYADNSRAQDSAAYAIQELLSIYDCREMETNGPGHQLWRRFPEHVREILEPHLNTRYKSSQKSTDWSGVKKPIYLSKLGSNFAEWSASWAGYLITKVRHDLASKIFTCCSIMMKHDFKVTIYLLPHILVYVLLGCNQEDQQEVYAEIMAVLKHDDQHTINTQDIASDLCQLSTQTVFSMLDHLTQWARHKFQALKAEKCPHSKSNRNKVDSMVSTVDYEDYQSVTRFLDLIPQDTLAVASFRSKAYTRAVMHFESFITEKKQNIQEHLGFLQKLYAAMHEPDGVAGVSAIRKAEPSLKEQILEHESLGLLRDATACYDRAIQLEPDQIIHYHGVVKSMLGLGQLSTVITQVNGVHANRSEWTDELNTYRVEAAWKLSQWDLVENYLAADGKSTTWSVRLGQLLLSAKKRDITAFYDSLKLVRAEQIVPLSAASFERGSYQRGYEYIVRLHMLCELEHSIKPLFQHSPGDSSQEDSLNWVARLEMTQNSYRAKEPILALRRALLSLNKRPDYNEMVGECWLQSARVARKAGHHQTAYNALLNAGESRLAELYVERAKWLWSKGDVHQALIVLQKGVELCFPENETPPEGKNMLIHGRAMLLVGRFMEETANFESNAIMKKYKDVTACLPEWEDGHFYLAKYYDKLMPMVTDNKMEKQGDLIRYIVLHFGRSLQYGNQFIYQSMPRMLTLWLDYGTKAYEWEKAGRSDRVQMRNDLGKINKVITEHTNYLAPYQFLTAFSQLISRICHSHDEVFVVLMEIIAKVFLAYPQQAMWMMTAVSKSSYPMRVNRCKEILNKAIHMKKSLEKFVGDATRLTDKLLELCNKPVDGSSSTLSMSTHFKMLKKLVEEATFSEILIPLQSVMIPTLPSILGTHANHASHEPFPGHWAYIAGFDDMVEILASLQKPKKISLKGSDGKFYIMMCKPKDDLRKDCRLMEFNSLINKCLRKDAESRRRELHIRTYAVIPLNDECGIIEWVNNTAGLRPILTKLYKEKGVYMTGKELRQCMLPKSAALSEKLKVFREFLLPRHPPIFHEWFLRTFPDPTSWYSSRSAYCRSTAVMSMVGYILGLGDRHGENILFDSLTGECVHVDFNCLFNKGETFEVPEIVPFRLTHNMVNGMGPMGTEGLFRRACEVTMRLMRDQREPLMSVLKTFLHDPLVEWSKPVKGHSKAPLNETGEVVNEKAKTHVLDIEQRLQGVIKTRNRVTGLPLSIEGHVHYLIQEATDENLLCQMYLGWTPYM
Chain of Tyrosine-protein kinase Fgr (P09769 whole entry): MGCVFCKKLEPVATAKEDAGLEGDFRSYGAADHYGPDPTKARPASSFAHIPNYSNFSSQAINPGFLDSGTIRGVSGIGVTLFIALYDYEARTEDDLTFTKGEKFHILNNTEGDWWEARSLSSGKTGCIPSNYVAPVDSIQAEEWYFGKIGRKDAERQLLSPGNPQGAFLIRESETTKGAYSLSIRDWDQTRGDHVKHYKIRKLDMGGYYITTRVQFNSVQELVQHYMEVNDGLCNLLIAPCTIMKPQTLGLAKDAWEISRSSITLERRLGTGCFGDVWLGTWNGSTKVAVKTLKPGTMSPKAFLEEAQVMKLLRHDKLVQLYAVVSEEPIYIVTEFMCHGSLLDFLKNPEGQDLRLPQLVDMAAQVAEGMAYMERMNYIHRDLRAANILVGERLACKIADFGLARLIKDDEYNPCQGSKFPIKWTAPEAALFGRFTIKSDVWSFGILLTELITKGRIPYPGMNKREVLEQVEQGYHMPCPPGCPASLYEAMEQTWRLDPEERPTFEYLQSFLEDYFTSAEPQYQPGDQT

`Cc1ccc(NC(=O)c2ccc(CN3CC[C@H](N(C)C)C3)c(C(F)(F)F)c2)cc1Nc1nccc(-c2cncnc2)n1` [BAFETINIB]: the Kd in experiment [1] is > 30 µM (inactive); in [2], > 30 µM (inactive); in experiment [3], > 30 µM (inactive); in [4], > 30 µM (inactive); in [5], 0.023 µM (active); in experiment [6] it was > 30 µM (inactive). The Kd in experiment [7], in experiment [8], in experiment [9], in experiment [10], in experiment [11] and in [12] was > 30 µM (inactive) throughout. The Kd in [13] was > 30 µM (inactive).
For `CC(C)Nc1cc(-c2c[nH]c(C(=O)N[C@H](CO)c3cccc(Cl)c3)c2)c(Cl)cn1` [ULIXERTINIB], the Kd in [1], in experiment [3], in experiment [4], in [5], in experiment [6] and in [9] was > 30 µM (inactive) each time. Moreover, the Kd in experiment [10] and in [11] was > 30 µM (inactive) throughout.
As for `O=C(Nc1cccc(Cl)c1)Nc1ncc(CCNc2ncnc3ccsc23)s1` [SNS-314], the Kd in experiment [1], in experiment [4], in experiment [6], in experiment [8], in [9] and in [11] was > 30 µM (inactive) throughout. Also, the Kd in experiment [12] and in [13] was > 30 µM (inactive) each time.
As for `CCCS(=O)(=O)Nc1ccc(F)c(C(=O)c2c[nH]c3ncc(-c4ccc(Cl)cc4)cc23)c1F` [VEMURAFENIB], the Kd in experiment [14], in [1], in experiment [2], in experiment [3], in experiment [6] and in experiment [7] was > 30 µM (inactive) in each case. Moreover, the Kd in experiment [8], in [9], in experiment [10], in [11], in experiment [12] and in experiment [13] was > 30 µM (inactive) each time.
In the case of `O=C(O)[C@]1(Cc2cccc(Nc3nccs3)n2)CC[C@@H](Oc2cccc(Cl)c2F)CC1` [MK-5108], the Kd in [14], in [1], in [3], in [4], in experiment [5] and in [6] was > 30 µM (inactive) in each case. In addition, the Kd in [7], in [8], in [10] and in [13] was > 30 µM (inactive) in each case.
For `OCCn1cc(-c2cnc3nnn(Cc4ccc5ncccc5c4)c3n2)cn1` [PF-04217903], the Kd in experiment [14], in experiment [1], in experiment [2], in experiment [3], in [4] and in experiment [5] was > 30 µM (inactive) each time. Besides, the Kd in experiment [6], in [8], in [9], in experiment [12] and in experiment [13] was > 30 µM (inactive) throughout.
With `COC(=O)N[C@@H](C)CNc1nccc(-c2cn(C(C)C)nc2-c2cc(Cl)cc(NS(C)(=O)=O)c2F)n1` [ENCORAFENIB], the Kd in experiment [1], in experiment [2], in experiment [3], in [4], in [6] and in experiment [7] was > 30 µM (inactive) each time. The Kd in [8], in experiment [9], in experiment [10], in experiment [11], in [12] and in [13] was > 30 µM (inactive) in each case.
Turning to `O=c1sn(-c2cccc3ccccc23)c(=O)n1Cc1ccccc1` [TIDEGLUSIB], the Kd in experiment [1], in [3], in experiment [4], in experiment [7], in [9] and in experiment [10] was > 30 µM (inactive) each time. Moreover, the Kd in experiment [11] and in [13] was > 30 µM (inactive) each time.
Take `CC(=O)Nc1cccc(-n2c(=O)n(C3CC3)c(=O)c3c(Nc4ccc(I)cc4F)n(C)c(=O)c(C)c32)c1` [TRAMETINIB]: the Kd in [14], in experiment [1], in experiment [3], in [4], in experiment [5] and in [6] was > 30 µM (inactive) in each case. Also, the Kd in experiment [7], in experiment [8], in experiment [9], in experiment [10], in [11] and in experiment [12] was > 30 µM (inactive) in each case. For the same compound, the Kd in experiment [13] was > 30 µM (inactive).

One may read the Kd as the free concentration of one partner at which half of the binding sites on the other are occupied at equilibrium, for simple one-to-one binding.
